One test relates to Alternaria brassicae. In words: In vivo test on Alternaria brassicae (leaf spot of crucifers) on radish plants. Particulars: at 330 ppm; comparative compounds of WO 01/11965. The method, then:
The active ingredient tested is prepared by potter homogenisation in a concentrated suspension type formulation at 100 g/l. This suspension is then diluted with water to obtain the desired active material concentration.
Radish plants (Pernot variety) in starter cups, sown on a 50/50 peat soil-pozzolana substrate and grown at 18-20° C., are treated at the cotyledon stage by spraying with the aqueous suspension described above.
Plants, used as controls, are treated with an aqueous solution not containing the active material.
After 24 hours, the plants are contaminated by spraying them with an aqueous suspension of Alternaria brassicae spores (40,000 spores per cm^3). The spores are collected from a 12 to 13 days-old culture.
The contaminated radish plants are incubated for 6-7 days at about 18° C., under a humid atmosphere.
Grading is carried out 6 to 7 days after the contamination, in comparison with the control plants.
Under these conditions, good (at least 50%) or total protection is observed at a dose of 330 ppm or 110 ppm with the following compounds: 1, 2, 3, 4, 5, 6, 7, 8, 9, 10 and 11.

The test system of another test is Botrytis cinerea. The test is described as follows: Effectiveness on Botrytis cinerea (comparative compounds). It counts as in vivo. To be noted: at 330 ppm; comparative compounds of WO 01/11965.
A further test concerns Peronospora parasitica. The test is described as follows: Efficacy against Peronospora parasitica (comparative compound). It counts as in vivo. To be noted: at 330 ppm; comparative compound of WO 01/11965.

For `O=C(Cc1cccs1)NCc1ncc(C(F)(F)F)cc1Cl` [compound 101, N-{[3-chloro-5-(trifluoromethyl)-2-pyridinyl]methyl}-5-thienylacetamide], in the test with Alternaria brassicae, the “effectiveness on Alternaria brassicae” value is “poor efficacy”. Besides, the “effectiveness on Botrytis cinerea” value in the test on Botrytis cinerea was “no efficacy”. The “efficacy against Peronospora parasitica” value with Peronospora parasitica was “no efficacy”. For the compound `CCNC(=O)C(Cc1ncc(C(F)(F)F)cc1Cl)NC(=O)c1ccccc1` (stereo not drawn) [compound 304, N-{1-ethylcarbamoyl-2-[3-chloro-5-(trifluoromethyl)-2-pyridinyl]-ethyl}-benzamide], the “effectiveness on Botrytis cinerea” value in the test on Botrytis cinerea was “zero effectiveness”. For `CCNC(=O)C(Cc1ncc(C(F)(F)F)cc1Cl)NC(=O)c1ccc(Cl)cc1` (stereo not drawn) [compound 306, N-{1-ethylcarbamoyl-2-[3-chloro-5-(trifluoromethyl)-2-pyridinyl]ethyl}-4-chlorobenzamide], the “effectiveness on Botrytis cinerea” value in the test with Botrytis cinerea was “zero effectiveness”. Take `CCNC(=O)C(Cc1ncc(C(F)(F)F)cc1Cl)NC(=O)c1cccc([N+](=O)[O-])c1` (stereo not drawn) [compound 307, N-{1-ethylcarbamoyl-2-[3-chloro-5-(trifluoromethyl)-2-pyridinyl]ethyl}-3-nitrobenzamide]: in the test with Alternaria brassicae, the “effectiveness on Alternaria brassicae” value is recorded as “poor effectiveness”. Further, in the test with Botrytis cinerea, the “effectiveness on Botrytis cinerea” value is recorded as “zero effectiveness”.

For the compound `CCNC(=O)C(Cc1ncc(C(F)(F)F)cc1Cl)NC(=O)c1ccccc1Br` (stereo not drawn) [compound 310, N-{1-ethylcarbamoyl-2-[3-chloro-5-(trifluoromethyl)-2-pyridinyl]ethyl}-2-bromobenzamide], the “effectiveness on Botrytis cinerea” value in the test with Botrytis cinerea is reported as “zero effectiveness”. Still for that read-out and setting: with `CNC(=O)C(Cc1ncc(C(F)(F)F)cc1Cl)NC(=O)c1ccccc1` (stereo not drawn) [compound 314, N-{1-methylcarbamoyl-2-[3-chloro-5-(trifluoromethyl)-2-pyridinyl]ethyl}-benzamide] the entry was “zero effectiveness”; with `CNC(=O)C(Cc1ncc(C(F)(F)F)cc1Cl)NC(=O)c1ccc(OC)cc1` (stereo not drawn) [compound 315, N-{1-methylcarbamoyl-2-[3-chloro-5-(trifluoromethyl)-2-pyridinyl]ethyl}-4-methoxybenzamide], “zero effectiveness”. `CNC(=O)C(Cc1ncc(C(F)(F)F)cc1Cl)NC(=O)c1ccc(-c2ccccc2)cc1` (stereo not drawn) [compound 316, N-{1-methylcarbamoyl-2-[3-chloro-5-(trifluoromethyl)-2-pyridinyl]-ethyl}-4-phenylbenzamide]: in the test on Alternaria brassicae, the “effectiveness on Alternaria brassicae” value is listed as “poor effectiveness”. Besides, the “effectiveness on Botrytis cinerea” value in the test on Botrytis cinerea is recorded as “zero effectiveness”.

(Values after patent publication US20080033020A1, “3-Pyridinylethylbenzamide Derivatives as Fungicides” (priority 2004, published 2008).)
